Laboratory results as given in article PMC3865603 (Cancer chemotherapy and pharmacology, 2011).

How the values were obtained:
[1] = mice; cited from earlier work
[2] = tested on: patients with advanced solid tumors; assay: Phase I dose escalation: safety, DLT, MTD; assay type: in vivo, human; details: for Dyspnea, grade 3: listed as remotely related to study drug
[3] = Urinary excretion of KOS-1584 and metabolites; assay type: in vivo, human; details: MTD level, 0-24 h urine
CYP3A4/5 = details: in vitro; cited from earlier work
tubulin in PBMCs = assay: Microtubule bundle formation; assay type: in vivo, human; details: for mean percentage of MBF: RP2D
plasma proteins = details: cited from earlier work
QTcB interval = assay: 12-lead ECG, QTcB interval; assay type: in vivo, human; details: baseline or pre- vs post-infusion ECGs, cycles 1 and 2
[4] = tested on: paclitaxel-resistant xenografts; details: cited from earlier work
[5] = tested on: advanced or metastatic solid tumors; assay: Anti-tumor activity; assay type: in vivo, human
[6] = 0.8 mg/m^2 (n = 1), treatment-related
[7] = 1.5 mg/m^2 (n = 4), treatment-related
[8] = 2.5 mg/m^2 (n = 4), treatment-related
[9] = 3.7 mg/m^2 (n = 3), treatment-related
[10] = 5 mg/m^2 (n = 4), treatment-related
[11] = 6.5 mg/m^2 (n = 6), treatment-related
[12] = 8.5 mg/m^2 (n = 3), treatment-related
[13] = 11.3 mg/m^2 (n = 4), treatment-related
[14] = 15 mg/m^2 (n = 4), treatment-related
[15] = 20 mg/m^2 (n = 5), treatment-related
[16] = 27 mg/m^2 (n = 4), treatment-related
[17] = 36 mg/m^2 (n = 16), treatment-related
[18] = 42 mg/m^2 (n = 6), treatment-related
[19] = 48 mg/m^2 (n = 2), treatment-related

C/C1=C/C[C@@H](/C(C)=C/c2csc(C)n2)OC(=O)C[C@H](O)C(C)(C)C(=O)[C@H](C)[C@@H](O)[C@@H](C)/C=C/C1 [KOS-1584, (E)-9,10-didehydroepothilone D]
penetration of the BBB [1]: did penetrate the BBB | Dyspnea, grade 3 ([2]; 0.8 mg/m^2 (n = 1)): 1 no. of patients | Anemia, grade 1/2 [2, 6]: 1 no. of patients | Anorexia, grade 1/2 [2, 6]: 1 no. of patients | Asthenia/fatigue, grade 3 [2, 6]: 1 no. of patients | Constipation, grade 1/2 [2, 6]: 1 no. of patients | Diarrhea, grade 1/2 [2, 6]: 1 no. of patients | Nausea/vomiting, grade 1/2 [2, 6]: 1 no. of patients | Anorexia, grade 1/2 [2, 7]: 2 no. of patients | Arthralgia/myalgia, grade 1/2 [2, 7]: 1 no. of patients | Back pain, grade 1/2 [2, 7]: 2 no. of patients | Diarrhea, grade 1/2 [2, 7]: 2 no. of patients | Dyspnea, grade 1/2 [2, 7]: 1 no. of patients | Lymphopenia, grade 1/2 [2, 7]: 1 no. of patients | Nausea/vomiting, grade 1/2 [2, 7]: 1 no. of patients | Peripheral neuropathy, grade 1/2 [2, 7]: 2 no. of patients | Pleural effusion, grade 1/2 [2, 7]: 1 no. of patients | Abdominal pain, grade 1/2 [2, 8]: 2 no. of patients | Anorexia, grade 1/2 [2, 8]: 2 no. of patients | Asthenia/fatigue, grade 1/2 [2, 8]: 4 no. of patients | Constipation, grade 1/2 [2, 8]: 2 no. of patients | Diarrhea, grade 1/2 [2, 8]: 2 no. of patients | Dry skin/rash, grade 1/2 [2, 8]: 1 no. of patients | Nausea/vomiting, grade 1/2 [2, 8]: 2 no. of patients | Peripheral neuropathy, grade 1/2 [2, 8]: 1 no. of patients | Abdominal pain, grade 1/2 [2, 9]: 1 no. of patients | Anemia, grade 1/2 [2, 9]: 1 no. of patients | Arthralgia/myalgia, grade 1/2 [2, 9]: 1 no. of patients | Asthenia/fatigue, grade 1/2 [2, 9]: 1 no. of patients | Diarrhea, grade 1/2 [2, 9]: 2 no. of patients | Dizziness, grade 1/2 [2, 9]: 1 no. of patients | Nausea/vomiting, grade 1/2 [2, 9]: 1 no. of patients | Peripheral neuropathy, grade 1/2 [2, 9]: 1 no. of patients | Anorexia, grade 1/2 [2, 10]: 1 no. of patients | Dizziness, grade 1/2 [2, 10]: 1 no. of patients | Edema, grade 1/2 [2, 10]: 1 no. of patients | Nausea/vomiting, grade 1/2 [2, 10]: 1 no. of patients | Dyspnea, grade 3 ([2]; 6.5 mg/m^2 (n = 6)): 1 no. of patients | Anemia, grade 1/2 [2, 11]: 1 no. of patients | Asthenia/fatigue, grade 1/2 [2, 11]: 2 no. of patients | Diarrhea, grade 1/2 [2, 11]: 1 no. of patients | Dizziness, grade 1/2 [2, 11]: 2 no. of patients | Nausea/vomiting, grade 1/2 [2, 11]: 1 no. of patients | Pleural effusion, grade 1/2 [2, 11]: 1 no. of patients | Asthenia/fatigue, grade 1/2 [2, 12]: 1 no. of patients | Edema, grade 1/2 [2, 12]: 1 no. of patients | Peripheral neuropathy, grade 1/2 [2, 12]: 1 no. of patients | Anorexia, grade 1/2 [2, 13]: 1 no. of patients | Asthenia/fatigue, grade 1/2 [2, 13]: 1 no. of patients | Asthenia/fatigue, grade 3 [2, 13]: 1 no. of patients | Constipation, grade 1/2 [2, 13]: 1 no. of patients | Headache, grade 1/2 [2, 13]: 1 no. of patients | Nausea/vomiting, grade 1/2 [2, 13]: 1 no. of patients | Abdominal pain, grade 3 [2, 14]: 1 no. of patients | Anemia, grade 1/2 [2, 14]: 1 no. of patients | Asthenia/fatigue, grade 3 [2, 14]: 1 no. of patients | Diarrhea, grade 1/2 [2, 14]: 1 no. of patients | Edema, grade 1/2 [2, 14]: 1 no. of patients | Nausea/vomiting, grade 1/2 [2, 14]: 2 no. of patients | Peripheral neuropathy, grade 1/2 [2, 14]: 1 no. of patients | Alopecia, grade 1/2 [2, 15]: 1 no. of patients | Anemia, grade 1/2 [2, 15]: 1 no. of patients | Anorexia, grade 1/2 [2, 15]: 1 no. of patients | Asthenia/fatigue, grade 1/2 [2, 15]: 1 no. of patients | Constipation, grade 1/2 [2, 15]: 1 no. of patients | Diarrhea, grade 1/2 [2, 15]: 1 no. of patients | Lymphopenia, grade 1/2 [2, 15]: 1 no. of patients | Nausea/vomiting, grade 1/2 [2, 15]: 2 no. of patients | Peripheral neuropathy, grade 1/2 [2, 15]: 2 no. of patients | Dyspnea, grade 3 ([2]; 27 mg/m^2 (n = 4)): 1 no. of patients | Alopecia, grade 1/2 [2, 16]: 1 no. of patients | Anemia, grade 1/2 [2, 16]: 2 no. of patients | Anorexia, grade 1/2 [2, 16]: 1 no. of patients | Asthenia/fatigue, grade 1/2 [2, 16]: 4 no. of patients | Back pain, grade 1/2 [2, 16]: 1 no. of patients | Chest pain, grade 1/2 [2, 16]: 1 no. of patients | Constipation, grade 1/2 [2, 16]: 1 no. of patients | Diarrhea, grade 1/2 [2, 16]: 1 no. of patients | Dizziness, grade 1/2 [2, 16]: 1 no. of patients | Dry skin/rash, grade 1/2 [2, 16]: 1 no. of patients | Headache, grade 1/2 [2, 16]: 3 no. of patients | Nausea/vomiting, grade 1/2 [2, 16]: 1 no. of patients | Peripheral neuropathy, grade 1/2 [2, 16]: 4 no. of patients | incidence of diarrhea at RP2D, first figure ([2]; 36 mg/m^2): 31% | incidence of diarrhea at RP2D, second figure ([2]; 36 mg/m^2): 6% | Alopecia, grade 1/2 [2, 17]: 4 no. of patients | Anemia, grade 1/2 [2, 17]: 2 no. of patients | Anorexia, grade 1/2 [2, 17]: 3 no. of patients | Arthralgia/myalgia, grade 3 [2, 17]: 1 no. of patients | Asthenia/fatigue, grade 3 [2, 17]: 1 no. of patients | Back pain, grade 1/2 [2, 17]: 1 no. of patients | Back pain, grade 3 [2, 17]: 1 no. of patients | Chest pain, grade 1/2 [2, 17]: 2 no. of patients | Chest pain, grade 3 [2, 17]: 1 no. of patients | Constipation, grade 1/2 [2, 17]: 1 no. of patients | Diarrhea, grade 1/2 [2, 17]: 4 no. of patients | Diarrhea, grade 3 [2, 17]: 1 no. of patients | Dry skin/rash, grade 1/2 [2, 17]: 1 no. of patients | Edema, grade 1/2 [2, 17]: 2 no. of patients | Headache, grade 1/2 [2, 17]: 1 no. of patients | Peripheral neuropathy, grade 1/2 [2, 17]: 11 no. of patients | Thrombocytopenia, grade 1/2 [2, 17]: 1 no. of patients | Abdominal pain, grade 3 [2, 18]: 2 no. of patients | Alopecia, grade 1/2 [2, 18]: 2 no. of patients | Anemia, grade 3 [2, 18]: 1 no. of patients | Anorexia, grade 1/2 [2, 18]: 2 no. of patients | Asthenia/fatigue, grade 1/2 [2, 18]: 3 no. of patients | Asthenia/fatigue, grade 3 [2, 18]: 1 no. of patients | Constipation, grade 3 [2, 18]: 1 no. of patients | Diarrhea, grade 1/2 [2, 18]: 3 no. of patients | Diarrhea, grade 3 [2, 18]: 2 no. of patients | Dizziness, grade 1/2 [2, 18]: 2 no. of patients | Lymphopenia, grade 3 [2, 18]: 1 no. of patients | Nausea/vomiting, grade 1/2 [2, 18]: 3 no. of patients | Neutropenia, grade 3 [2, 18]: 1 no. of patients | Peripheral neuropathy, grade 1/2 [2, 18]: 4 no. of patients | Peripheral neuropathy, grade 3 [2, 18]: 2 no. of patients | Thrombocytopenia, grade 1/2 [2, 18]: 1 no. of patients | Anorexia, grade 1/2 [2, 19]: 1 no. of patients | Arthralgia/myalgia, grade 3 [2, 19]: 1 no. of patients | Asthenia/fatigue, grade 1/2 [2, 19]: 1 no. of patients | Back pain, grade 3 [2, 19]: 1 no. of patients | Nausea/vomiting, grade 3 [2, 19]: 1 no. of patients | Peripheral neuropathy, grade 3 [2, 19]: 1 no. of patients | frequency of all-grade peripheral neuropathy ([2]; RP2D 36 mg/m^2): 69% | frequency of grade ≥3 peripheral neuropathy ([2]; RP2D 36 mg/m^2): 0% | patients who discontinued therapy due to adverse effects ([2]; all cohorts): Five | patients with positive FOBT or hematochezia ([2]; all cohorts): Five | myelosuppression ([2]; heavily pretreated patients): very low incidence of myelosuppression | recommended phase II dose (RP2D) ([2]; iv every 3 weeks): 36 mg/m^2 | maximum tolerated dose (MTD) ([2]; iv over 3 h every 3 weeks): 36 mg/m^2 | hypersensitivity reactions ([2]; no routine premedication): not associated with any hypersensitivity reactions | Urinary excretion of unchanged KOS-1584 [3]: < 10 % of drug-related materials | inhibition of CYP3A4/5 (CYP3A4/5): potent inhibitor | mean percentage of MBF (tubulin in PBMCs; 1 h after infusion): 50% | mean percentage of MBF (tubulin in PBMCs; 24 h after infusion): 26% | E0 of MBF (tubulin in PBMCs; sigmoidal maximum effect model): 3.69% | EC50 of plasma concentration for MBF (tubulin in PBMCs; sigmoidal maximum effect model): 0.0241 µg/mL | Emax of MBF (tubulin in PBMCs; sigmoidal maximum effect model): 52.7% | bound to plasma proteins (plasma proteins): 97% | effect on QTcB interval (QTcB interval): did not show any effects | anti-tumor activity [4]: anti-tumor activity has been demonstrated | patients with durable SD of ≥3 months ([5]; 66 patients): 13 patients | patients with objective partial response (PR) ([5]; 66 patients, 0.8-48 mg/m^2): Two | disease control rate (CR + PR + SD) ([5]; all patients): 39%
